Read-outs that look alike come from different tables or passages of the source.
How the values were obtained:
[1] = tested on: Onychomycosis fungi; test: Addition of undecylenic acid or hydroquinone to cyanoacrylate ester on infected nails; type: in vivo; details: for effect on yellow color of infected nails: added to cyanoacrylate ester
[2] = cited from earlier work
[3] = tested on: onychomycosis; details: continuous therapy (ingestion); cited from earlier work

Oc1ccc(O)cc1 [hydroquine]
effect on yellow color of infected nails [1]: remove the yellow-color of infected nails

C=CCCCCCCCCC(=O)O [undecylenic acid]
effect on yellow color of infected nails [1]: remove the yellow-color of infected nails | effect on spread of infection ([1]; addition of 1-12%, preferably 2-10%): inhibit the spread of infection

2-ETHYL CYANO ACRYLATE
Soluble In ([2]; Cured State): Pacer X-8 Debonder, Acetone, | Soluble In ([2]; Liquid State): Acetone, MEK, Nitromethane

CN(C/C=C/C#CC(C)(C)C)Cc1cccc2ccccc12 [Lamisil, terbinafine]
Cure of all nails (share of subjects) [3]: 25% | complete cure [3]: 41% | mycological cure [3]: 71%

From patent US20090036531A1, “Method for treatment of onychomycosis” (priority 2005, published 2009)
